ChEMBL document CHEMBL1128364 (J Med Chem, 1995)
Each block holds one molecule with its values, some of them ahead of it. Numbered stars: 1 amine (or outer) side, 2 acyl side, 3 side chain; on linkers, the order of the positions; unused ones are H or OH. Bridge positions count the residues as written; N and C are the ends. Square brackets hold non-standard residues; d marks the D form. Peptide text beside a SMILES is read from it. X2 = O=C(CC1(S[*:2])CCCCC1)[*:1]

Columns and labels:
Vasopressin V2 receptor = Vasopressin V2 receptor (Rattus norvegicus, UniProt Q00788); experiment: (§1) Antidiuretic activity at V2 receptor; type: tissue-based, Urine; details: read-out: pA2 (converted)
Vasopressin V1a receptor = Vasopressin V1a receptor (Rattus norvegicus, UniProt P30560); experiment: (§2) Anti-vasopressor activity at V1a receptor; details: for Kb: read-out: pA2 (converted)
Rattus norvegicus [1] = experiment: (§3) In vivo anti-oxytocic activity was determined.; type: functional, organism-based; details: read-out: pA2 (converted)
Oxytocin receptor [2] = biological target: T1, Oxytocin receptor (Rattus norvegicus, UniProt P70536); experiment: In vitro anti-oxytocic activity with out Mg2+.; details: for Kb: read-out: pA2 (converted)
T1 sequence (P70536 whole entry): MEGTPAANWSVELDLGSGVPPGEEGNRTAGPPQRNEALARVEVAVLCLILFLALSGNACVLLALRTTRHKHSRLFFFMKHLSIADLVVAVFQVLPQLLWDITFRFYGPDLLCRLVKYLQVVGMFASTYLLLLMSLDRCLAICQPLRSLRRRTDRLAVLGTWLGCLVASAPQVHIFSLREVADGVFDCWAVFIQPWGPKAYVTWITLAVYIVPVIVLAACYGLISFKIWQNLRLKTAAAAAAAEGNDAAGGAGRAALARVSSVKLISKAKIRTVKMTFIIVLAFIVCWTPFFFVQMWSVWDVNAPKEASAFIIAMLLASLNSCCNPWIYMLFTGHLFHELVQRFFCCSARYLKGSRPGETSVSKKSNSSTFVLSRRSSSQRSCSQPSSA

Oxytocin receptor [3] = biological target: T1, Oxytocin receptor; experiment: In vitro anti-oxytocic activity with 0.5 mM Mg2+.; details: for Kb: read-out: pA2 (converted)
Oxytocin receptor [4] = biological target: T1, Oxytocin receptor; experiment: In vitro antioxycic activity with out Mg2+.; details: read-out: pA2 (converted)
[5] = biological target: Vasopressin V2 receptor (Rattus norvegicus) (UniProt Q00788); experiment: Antidiuretic activity at V2 receptor.; details: Urine
[6] = biological target: T2, Oxytocin receptor (Rattus norvegicus) (UniProt P70536); experiment: Compound was evaluated for the oxytocic activity with out Mg2+.
T2 sequence (whole entry): T1 sequence (P70536 whole entry)

Rattus norvegicus [7] = experiment: as §3; type: functional
[8] = biological target: Vasopressin V1a receptor (Rattus norvegicus) (UniProt P30560); experiment: as §2
[9] = biological target: Vasopressin V2 receptor (Rattus norvegicus) (UniProt Q00788); experiment: as §1; type: tissue-based; details: Urine
Rattus norvegicus [10] = experiment: (§4) In vivo activity for the anti-oxytocic activity.; type: functional
Rattus norvegicus [11] = experiment: as §4; type: functional, organism-based; details: read-out: pA2 (converted)

Chain of Vasopressin V1a receptor (Rattus norvegicus) (P30560 whole entry, looked up): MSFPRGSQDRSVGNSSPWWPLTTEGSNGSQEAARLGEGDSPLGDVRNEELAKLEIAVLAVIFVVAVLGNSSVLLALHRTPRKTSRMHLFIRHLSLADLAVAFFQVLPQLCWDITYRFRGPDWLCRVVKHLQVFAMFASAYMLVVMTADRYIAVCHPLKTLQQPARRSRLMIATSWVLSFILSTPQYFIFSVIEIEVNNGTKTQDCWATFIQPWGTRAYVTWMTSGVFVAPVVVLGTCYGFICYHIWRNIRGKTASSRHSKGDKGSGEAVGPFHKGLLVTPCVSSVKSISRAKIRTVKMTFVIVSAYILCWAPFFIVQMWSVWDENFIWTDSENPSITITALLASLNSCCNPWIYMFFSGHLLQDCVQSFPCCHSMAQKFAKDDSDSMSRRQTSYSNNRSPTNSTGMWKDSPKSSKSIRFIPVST
Chain of Vasopressin V1a receptor (P30560 whole entry): as the sequence (P30560 whole entry, looked up) above
Chain of Vasopressin V2 receptor (Rattus norvegicus) (Q00788 whole entry): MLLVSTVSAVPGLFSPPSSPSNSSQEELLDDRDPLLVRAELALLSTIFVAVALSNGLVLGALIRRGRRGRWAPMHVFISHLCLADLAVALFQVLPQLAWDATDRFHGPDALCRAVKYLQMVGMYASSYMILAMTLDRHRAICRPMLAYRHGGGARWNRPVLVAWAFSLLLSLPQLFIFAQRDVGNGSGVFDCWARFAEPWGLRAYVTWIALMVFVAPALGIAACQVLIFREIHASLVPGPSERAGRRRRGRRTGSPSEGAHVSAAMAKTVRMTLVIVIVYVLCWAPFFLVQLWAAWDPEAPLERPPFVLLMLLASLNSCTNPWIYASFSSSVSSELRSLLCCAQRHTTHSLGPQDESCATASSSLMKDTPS
Chain of Vasopressin V2 receptor (Q00788 whole entry): as above

Compound: CC[C@H](C)[C@@H]1NC(=O)[C@@H](Cc2c[nH]c3ccccc23)NC(=O)CC2(CCCCC2)SSC[C@H](C(=O)N2CCC[C@H]2C(=O)N[C@@H](CCCN=C(N)N)C(=O)NCC(N)=O)NC(=O)[C@H](CC(N)=O)NC(=O)[C@H](CCC(N)=O)NC1=O ([dW]IQN[dC]PRG-NH2; linker N-5 via X2)
Kb (Vasopressin V2 receptor): > 2510 nM
Kb (Vasopressin V1a receptor): 29.5 nM

Compound: CCOc1ccc(C[C@@H]2NC(=O)CC3(CCCCC3)SSC[C@H](C(=O)N3CCC[C@H]3C(=O)N[C@@H](CCCN=C(N)N)C(=O)NCC(N)=O)NC(=O)[C@H](CC(N)=O)NC(=O)[C@H](C(C)C)NC(=O)[C@H](Cc3ccccc3)NC2=O)cc1
Kb (Vasopressin V1a receptor): 64.6 nM

Compound: CC[C@H](C)[C@@H]1NC(=O)[C@H](Cc2ccc(OC)cc2)NC(=O)CC2(CCCCC2)SSC[C@H](C(=O)N2CCC[C@H]2C(=O)N[C@@H](CCCN)C(=O)NCC(N)=O)NC(=O)[C@H](CC(N)=O)NC(=O)[C@H](CCC(N)=O)NC1=O [listing 1 of 2 here]
Kb (Rattus norvegicus [1]): 46.8 nM
Kb (Vasopressin V2 receptor): 1260 nM
Kb (Vasopressin V1a receptor): 56.2 nM
Kb (Oxytocin receptor [2]): 22.4 nM
Kb (Oxytocin receptor [3]): 36.3 nM

Kb (Vasopressin V2 receptor): 3980 nM
Kb (Vasopressin V1a receptor): 275 nM
Kb (Oxytocin receptor [2]): 18.6 nM
Kb (Oxytocin receptor [3]): 25.1 nM
Compound: CC[C@H](C)[C@@H]1NC(=O)[C@H](Cc2ccc(OC)cc2)NC(=O)CC2(CCCCC2)SSC[C@H](C(=O)N2CCC[C@H]2C(=O)N[C@@H](CCCN)C(=O)O)NC(=O)[C@H](CC(N)=O)NC(=O)[C@H]([C@@H](C)O)NC1=O
Kb (Rattus norvegicus [1]): 138 nM

Compound: CC[C@H](C)[C@@H]1NC(=O)[C@@H](Cc2c[nH]c3ccccc23)NC(=O)CC2(CCCCC2)SSC[C@@H](C(=O)N2CCC[C@H]2C(=O)N[C@@H](CCCN=C(N)N)C(=O)NCC(N)=O)NC(=O)[C@H](CC(N)=O)NC(=O)[C@H](CCC(N)=O)NC1=O ([dW]IQNCPRG-NH2; linker N-5 via X2)
Kb (Vasopressin V2 receptor): > 1260 nM
Kb (Vasopressin V1a receptor): 27.5 nM

Kb (Vasopressin V2 receptor): 3160 nM
Kb (Vasopressin V1a receptor): 148 nM
Kb (Oxytocin receptor [3]): 38.9 nM
Kb (Oxytocin receptor [4]): 11 nM
Compound: CC[C@H](C)[C@@H]1NC(=O)[C@H](Cc2ccc(OC)cc2)NC(=O)CC2(CCCCC2)SSC[C@H](C(=O)N2CCC[C@H]2C(=O)N[C@@H](CCCN)C(=O)N[C@@H](Cc2ccc(O)cc2)C(N)=O)NC(=O)[C@H](CC(N)=O)NC(=O)[C@H]([C@@H](C)O)NC1=O [listing 1 of 2 here]
Kb (Rattus norvegicus [1]): 83.2 nM

Compound: CC[C@H](C)[C@@H]1NC(=O)[C@H](Cc2ccc(O)cc2)NC(=O)[C@H](N)CSSC[C@H](C(=O)N2CCC[C@H]2C(=O)N[C@@H](CC(C)C)C(=O)NCC(N)=O)NC(=O)[C@H](CC(N)=O)NC(=O)[C@H](CCC(N)=O)NC1=O
Antidiuretic activity [5]: < 0.002 U mg-1
Oxytocic activity [6]: 0.62 U mg-1

Compound: CC(C)[C@@H]1NC(=O)[C@H](Cc2ccccc2)NC(=O)[C@@H](Cc2ccccc2)NC(=O)CC2(CCCCC2)SSC[C@@H](C(=O)N2CCC[C@H]2C(=O)N[C@@H](CCCN=C(N)N)C(=O)NCC(N)=O)NC(=O)[C@H](CC(N)=O)NC1=O
Kb (Vasopressin V2 receptor): 8.51 nM
Kb (Vasopressin V1a receptor): 8.71 nM

Compound: CC[C@H](C)[C@@H]1NC(=O)[C@H](Cc2ccc(OC)cc2)NC(=O)CC2(CCCCC2)SSC[C@H](C(=O)N2CCC[C@H]2C(=O)N[C@@H](CCCN)C(=O)N[C@@H](Cc2ccc(O)cc2)C(N)=O)NC(=O)[C@H](CC(N)=O)NC(=O)[C@H]([C@@H](C)O)NC1=O [listing 2 of 2 here]
ED (Rattus norvegicus [7]): 5.63 nM/kg

ED [8]: 6.6 nM/kg
Kb (Vasopressin V1a receptor): 95.5 nM
Kb (Oxytocin receptor [3]): 5.25 nM
Antidiuretic activity [9]: 0.015 U mg-1
Kb (Oxytocin receptor [4]): 23.4 nM
Compound: CC[C@H](C)[C@@H]1NC(=O)[C@H](Cc2ccc(OC)cc2)NC(=O)CC2(CCCCC2)SSC[C@@H](C(=O)N2CCC[C@H]2C(=O)N[C@@H](CCCN)C(=O)N[C@@H](Cc2ccc(O)cc2)C(N)=O)NC(=O)[C@H](CC(N)=O)NC(=O)[C@H]([C@@H](C)O)NC1=O

Compound: CC[C@H](C)[C@@H]1NC(=O)[C@H](Cc2ccc(OC)cc2)NC(=O)CC2(CCCCC2)SSC[C@H](C(=O)N2CCC[C@H]2C(=O)N[C@@H](CCCN)C(=O)NCC(N)=O)NC(=O)[C@H](CC(N)=O)NC(=O)[C@H](CCC(N)=O)NC1=O [listing 2 of 2 here]
ED (Rattus norvegicus [7]): 3.11 nM/kg

pA2 (Vasopressin V1a receptor): 5.43
pA2 (Oxytocin receptor [2]): 8.02
pA2 (Oxytocin receptor [3]): 7.64
Compound: CC[C@H](C)[C@@H]1NC(=O)[C@@H](Cc2c[nH]c3ccccc23)NC(=O)CC2(CCCCC2)SSC[C@@H](C(=O)N2CCC[C@H]2C(=O)N[C@@H](CCCN)C(=O)NCC(N)=O)NC(=O)[C@H](CC(N)=O)NC(=O)[C@H]([C@@H](C)O)NC1=O
Kb (Rattus norvegicus [1]): 45.7 nM

ED [8]: 23 nM/kg
Kb (Vasopressin V2 receptor): 3160 nM
Kb (Vasopressin V1a receptor): 331 nM
Kb (Oxytocin receptor [2]): 12.9 nM
Kb (Oxytocin receptor [3]): 5.75 nM
Compound: CC[C@H](C)[C@@H]1NC(=O)[C@H](Cc2ccc(OC)cc2)NC(=O)CC2(CCCCC2)SSC[C@@H](C(=O)N2CCC[C@H]2C(=O)N[C@@H](CCCN)C(=O)O)NC(=O)[C@H](CC(N)=O)NC(=O)[C@H]([C@@H](C)O)NC1=O

Compound: CCOc1ccc(C[C@@H]2NC(=O)CC3(CCCCC3)SSC[C@@H](C(=O)N3CCC[C@H]3C(=O)N[C@@H](CCCN=C(N)N)C(=O)NCC(N)=O)NC(=O)[C@H](CC(N)=O)NC(=O)[C@H](C(C)C)NC(=O)[C@H](Cc3ccccc3)NC2=O)cc1
ED [8]: 0.14 nM/kg
Kb (Vasopressin V1a receptor): 6.92 nM
ED (Rattus norvegicus [10]): 13 nM/kg
ED [9]: 1.9 nM/kg
Kb (Rattus norvegicus [11]): 182 nM
